From ChEMBL document CHEMBL3046556, “Microwave-assisted synthesis and antimicrobial screening of new imidazole derivatives bearing 4-thiazolidinone nucleus” (2013)
Activity calls are given as the source filed them.

Tests used:
Streptococcus pyogenes [1] = assay: Antibacterial activity against Streptococcus pyogenes MTCC 442 assessed as growth inhibition at 12.5 to 1000 ug/mL after 24 hr by NCCLS broth dilution method; type: functional, organism-based
Staphylococcus aureus [2] = assay: Antibacterial activity against Staphylococcus aureus MTCC 96 assessed as growth inhibition at 12.5 to 1000 ug/mL after 24 hr by NCCLS broth dilution method; type: functional, organism-based
Pseudomonas aeruginosa [3] = assay: Antibacterial activity against Pseudomonas aeruginosa MTCC 1688 assessed as growth inhibition at 12.5 to 1000 ug/mL after 24 hr by NCCLS broth dilution method; type: functional, organism-based
Escherichia coli [4] = assay: Antibacterial activity against Escherichia coli MTCC 443 assessed as growth inhibition at 12.5 to 1000 ug/mL after 24 hr by NCCLS broth dilution method; type: functional, organism-based
Aspergillus clavatus = assay: Antifungal activity against Aspergillus clavatus MTCC 1323 assessed as growth inhibition at 12.5 to 1000 ug/mL after 48 hr by broth dilution method; type: functional, organism-based
Aspergillus niger = assay: Antifungal activity against Aspergillus niger MTCC 282 assessed as growth inhibition at 12.5 to 1000 ug/mL after 48 hr by broth dilution method; type: functional, organism-based
Candida albicans = assay: Antifungal activity against Candida albicans MTCC 227 assessed as growth inhibition at 12.5 to 1000 ug/mL after 48 hr by broth dilution method; type: functional, organism-based
Staphylococcus aureus [5] = assay: Antibacterial activity against Staphylococcus aureus MTCC 96 assessed as growth inhibition after 24 hr by NCCLS broth dilution method; type: functional; conditions: MTCC 96, 24 h
Escherichia coli [6] = assay: Antibacterial activity against Escherichia coli MTCC 443 assessed as growth inhibition after 24 hr by NCCLS broth dilution method; type: functional; conditions: MTCC 443, 24 h
Streptococcus pyogenes [7] = assay: Antibacterial activity against Streptococcus pyogenes MTCC 442 assessed as growth inhibition after 24 hr by NCCLS broth dilution method; type: functional; conditions: MTCC 442, 24 h
Pseudomonas aeruginosa [8] = assay: Antibacterial activity against Pseudomonas aeruginosa MTCC 1688 assessed as growth inhibition after 24 hr by NCCLS broth dilution method; type: functional; conditions: MTCC 1688, 24 h

CC1=N/C(=C/c2ccccc2[N+](=O)[O-])C(=O)N1c1ccc(/C(C)=N/NC(N)=S)cc1
active: growth inhibition (GI) (Aspergillus clavatus) | growth inhibition (GI) (Aspergillus niger) | growth inhibition (GI) (Candida albicans)
inactive: growth inhibition (GI) (Streptococcus pyogenes [1]) | growth inhibition (GI) (Staphylococcus aureus [2]) | growth inhibition (GI) (Pseudomonas aeruginosa [3]) | growth inhibition (GI) (Escherichia coli [4])

CC1=N/C(=C/c2ccc(F)cc2)C(=O)N1c1ccc(/C(C)=N/NC(N)=S)cc1
inactive: growth inhibition (GI) (Streptococcus pyogenes [1]) | growth inhibition (GI) (Staphylococcus aureus [2]) | growth inhibition (GI) (Pseudomonas aeruginosa [3]) | growth inhibition (GI) (Escherichia coli [4])
active: growth inhibition (GI) (Aspergillus clavatus) | growth inhibition (GI) (Aspergillus niger) | growth inhibition (GI) (Candida albicans)

CC1=N/C(=C/c2ccccc2Cl)C(=O)N1c1ccc(/C(C)=N/NC(N)=S)cc1
inactive: growth inhibition (GI) (Streptococcus pyogenes [1]) | growth inhibition (GI) (Staphylococcus aureus [2]) | growth inhibition (GI) (Pseudomonas aeruginosa [3]) | growth inhibition (GI) (Escherichia coli [4])
active: growth inhibition (GI) (Aspergillus clavatus) | growth inhibition (GI) (Aspergillus niger) | growth inhibition (GI) (Candida albicans)

CC(=O)c1ccc(N2C(=O)/C(=C\c3ccc([N+](=O)[O-])cc3)N=C2C)cc1
inactive: growth inhibition (GI) (Streptococcus pyogenes [1]) | growth inhibition (GI) (Staphylococcus aureus [2]) | growth inhibition (GI) (Pseudomonas aeruginosa [3]) | growth inhibition (GI) (Escherichia coli [4]) | growth inhibition (GI) (Aspergillus clavatus) | growth inhibition (GI) (Aspergillus niger) | growth inhibition (GI) (Candida albicans)

CC1=N/C(=C/c2cccc(O)c2)C(=O)N1c1ccc(/C(C)=N/NC(N)=S)cc1
inactive: growth inhibition (GI) (Streptococcus pyogenes [1]) | growth inhibition (GI) (Pseudomonas aeruginosa [3])
500 µg/mL: MIC (Staphylococcus aureus [5])
1000 µg/mL: MIC (Escherichia coli [6])
active: growth inhibition (GI) (Aspergillus clavatus) | growth inhibition (GI) (Aspergillus niger) | growth inhibition (GI) (Candida albicans)

CC1=N/C(=C/c2ccccc2F)C(=O)N1c1ccc(/C(C)=N/NC(N)=S)cc1
inactive: growth inhibition (GI) (Streptococcus pyogenes [1]) | growth inhibition (GI) (Staphylococcus aureus [2]) | growth inhibition (GI) (Pseudomonas aeruginosa [3]) | growth inhibition (GI) (Escherichia coli [4])
active: growth inhibition (GI) (Aspergillus clavatus) | growth inhibition (GI) (Aspergillus niger) | growth inhibition (GI) (Candida albicans)

CC1=N/C(=C/c2cccc(C)c2)C(=O)N1c1ccc(/C(C)=N/NC(N)=S)cc1
500 µg/mL: MIC (Staphylococcus aureus [5])
active: growth inhibition (GI) (Aspergillus clavatus) | growth inhibition (GI) (Aspergillus niger) | growth inhibition (GI) (Candida albicans)
inactive: growth inhibition (GI) (Streptococcus pyogenes [1]) | growth inhibition (GI) (Pseudomonas aeruginosa [3])
1000 µg/mL: MIC (Escherichia coli [6])

COc1ccc(/C=C2/N=C(C)N(c3ccc(/C(C)=N/NC(N)=S)cc3)C2=O)cc1
inactive: growth inhibition (GI) (Escherichia coli [4])
active: growth inhibition (GI) (Aspergillus clavatus) | growth inhibition (GI) (Aspergillus niger) | growth inhibition (GI) (Candida albicans)
500 µg/mL: MIC (Streptococcus pyogenes [7]) | MIC (Staphylococcus aureus [5]) | MIC (Pseudomonas aeruginosa [8])

CC1=N/C(=C/c2ccc(Cl)cc2)C(=O)N1c1ccc(/C(C)=N/NC(N)=S)cc1
inactive: growth inhibition (GI) (Streptococcus pyogenes [1]) | growth inhibition (GI) (Staphylococcus aureus [2]) | growth inhibition (GI) (Pseudomonas aeruginosa [3]) | growth inhibition (GI) (Escherichia coli [4])
active: growth inhibition (GI) (Aspergillus clavatus) | growth inhibition (GI) (Aspergillus niger) | growth inhibition (GI) (Candida albicans)

CC1=N/C(=C/c2ccc([N+](=O)[O-])cc2)C(=O)N1c1ccc(/C(C)=N/NC(N)=S)cc1
active: growth inhibition (GI) (Aspergillus clavatus) | growth inhibition (GI) (Aspergillus niger) | growth inhibition (GI) (Candida albicans)
inactive: growth inhibition (GI) (Streptococcus pyogenes [1]) | growth inhibition (GI) (Staphylococcus aureus [2]) | growth inhibition (GI) (Pseudomonas aeruginosa [3]) | growth inhibition (GI) (Escherichia coli [4])

CC(=O)c1ccc(N2C(=O)/C(=C\c3ccc(F)cc3)N=C2C)cc1
inactive: growth inhibition (GI) (Streptococcus pyogenes [1]) | growth inhibition (GI) (Staphylococcus aureus [2]) | growth inhibition (GI) (Pseudomonas aeruginosa [3]) | growth inhibition (GI) (Escherichia coli [4]) | growth inhibition (GI) (Aspergillus clavatus) | growth inhibition (GI) (Aspergillus niger) | growth inhibition (GI) (Candida albicans)

CC1=N/C(=C/c2ccccc2O)C(=O)N1c1ccc(/C(C)=N/NC(N)=S)cc1
active: growth inhibition (GI) (Aspergillus clavatus) | growth inhibition (GI) (Aspergillus niger) | growth inhibition (GI) (Candida albicans)
500 µg/mL: MIC (Streptococcus pyogenes [7]) | MIC (Staphylococcus aureus [5]) | MIC (Pseudomonas aeruginosa [8])
inactive: growth inhibition (GI) (Escherichia coli [4])

CC1=N/C(=C/c2ccc(O)cc2)C(=O)N1c1ccc(/C(C)=N/NC(N)=S)cc1
inactive: growth inhibition (GI) (Escherichia coli [4])
500 µg/mL: MIC (Streptococcus pyogenes [7]) | MIC (Staphylococcus aureus [5]) | MIC (Pseudomonas aeruginosa [8])
active: growth inhibition (GI) (Aspergillus clavatus) | growth inhibition (GI) (Aspergillus niger) | growth inhibition (GI) (Candida albicans)

CC(=O)c1ccc(N2C(=O)/C(=C\c3ccccc3F)N=C2C)cc1
inactive: growth inhibition (GI) (Streptococcus pyogenes [1]) | growth inhibition (GI) (Staphylococcus aureus [2]) | growth inhibition (GI) (Pseudomonas aeruginosa [3]) | growth inhibition (GI) (Escherichia coli [4]) | growth inhibition (GI) (Aspergillus clavatus) | growth inhibition (GI) (Aspergillus niger) | growth inhibition (GI) (Candida albicans)

CC(=O)c1ccc(N2C(=O)/C(=C\c3cccc(C)c3)N=C2C)cc1
inactive: growth inhibition (GI) (Streptococcus pyogenes [1]) | growth inhibition (GI) (Staphylococcus aureus [2]) | growth inhibition (GI) (Pseudomonas aeruginosa [3]) | growth inhibition (GI) (Escherichia coli [4]) | growth inhibition (GI) (Aspergillus clavatus) | growth inhibition (GI) (Aspergillus niger) | growth inhibition (GI) (Candida albicans)

COc1ccc(/C=C2/N=C(C)N(c3ccc(C(C)=O)cc3)C2=O)cc1
1000 µg/mL: MIC (Staphylococcus aureus [5]) | MIC (Escherichia coli [6])
inactive: growth inhibition (GI) (Streptococcus pyogenes [1]) | growth inhibition (GI) (Pseudomonas aeruginosa [3]) | growth inhibition (GI) (Aspergillus clavatus) | growth inhibition (GI) (Aspergillus niger) | growth inhibition (GI) (Candida albicans)

CC(=O)c1ccc(N2C(=O)/C(=C\c3ccccc3C)N=C2C)cc1
inactive: growth inhibition (GI) (Streptococcus pyogenes [1]) | growth inhibition (GI) (Staphylococcus aureus [2]) | growth inhibition (GI) (Pseudomonas aeruginosa [3]) | growth inhibition (GI) (Escherichia coli [4]) | growth inhibition (GI) (Aspergillus clavatus) | growth inhibition (GI) (Aspergillus niger) | growth inhibition (GI) (Candida albicans)

CC(=O)c1ccc(N2C(=O)/C(=C\c3ccccc3[N+](=O)[O-])N=C2C)cc1
inactive: growth inhibition (GI) (Streptococcus pyogenes [1]) | growth inhibition (GI) (Staphylococcus aureus [2]) | growth inhibition (GI) (Pseudomonas aeruginosa [3]) | growth inhibition (GI) (Escherichia coli [4]) | growth inhibition (GI) (Aspergillus clavatus) | growth inhibition (GI) (Aspergillus niger) | growth inhibition (GI) (Candida albicans)

CC1(C)S[C@@H]2[C@H](NC(=O)[C@H](N)c3ccccc3)C(=O)N2[C@H]1C(=O)O [AMPICILLIN]
250 µg/mL: MIC (Escherichia coli [6])
100 µg/mL: MIC (Streptococcus pyogenes [7]) | MIC (Staphylococcus aureus [5]) | MIC (Pseudomonas aeruginosa [8])

CC(=O)c1ccc(N2C(=O)/C(=C\c3ccccc3Cl)N=C2C)cc1
inactive: growth inhibition (GI) (Streptococcus pyogenes [1]) | growth inhibition (GI) (Staphylococcus aureus [2]) | growth inhibition (GI) (Pseudomonas aeruginosa [3]) | growth inhibition (GI) (Escherichia coli [4]) | growth inhibition (GI) (Aspergillus clavatus) | growth inhibition (GI) (Aspergillus niger) | growth inhibition (GI) (Candida albicans)

CC(=O)c1ccc(N2C(=O)/C(=C\c3cccc(O)c3)N=C2C)cc1
inactive: growth inhibition (GI) (Streptococcus pyogenes [1]) | growth inhibition (GI) (Staphylococcus aureus [2]) | growth inhibition (GI) (Pseudomonas aeruginosa [3]) | growth inhibition (GI) (Escherichia coli [4]) | growth inhibition (GI) (Aspergillus clavatus) | growth inhibition (GI) (Aspergillus niger) | growth inhibition (GI) (Candida albicans)

CC1=N/C(=C/c2ccc(C)cc2)C(=O)N1c1ccc(/C(C)=N/NC(N)=S)cc1
500 µg/mL: MIC (Streptococcus pyogenes [7]) | MIC (Staphylococcus aureus [5]) | MIC (Pseudomonas aeruginosa [8])
inactive: growth inhibition (GI) (Escherichia coli [4])
active: growth inhibition (GI) (Aspergillus clavatus) | growth inhibition (GI) (Aspergillus niger) | growth inhibition (GI) (Candida albicans)

CC1=N/C(=C/c2ccccc2C)C(=O)N1c1ccc(/C(C)=N/NC(N)=S)cc1
active: growth inhibition (GI) (Aspergillus clavatus) | growth inhibition (GI) (Aspergillus niger) | growth inhibition (GI) (Candida albicans)
inactive: growth inhibition (GI) (Streptococcus pyogenes [1]) | growth inhibition (GI) (Staphylococcus aureus [2]) | growth inhibition (GI) (Pseudomonas aeruginosa [3]) | growth inhibition (GI) (Escherichia coli [4])

CC(=O)c1ccc(N2C(=O)/C(=C\c3ccccc3)N=C2C)cc1
inactive: growth inhibition (GI) (Streptococcus pyogenes [1]) | growth inhibition (GI) (Staphylococcus aureus [2]) | growth inhibition (GI) (Pseudomonas aeruginosa [3]) | growth inhibition (GI) (Escherichia coli [4]) | growth inhibition (GI) (Aspergillus clavatus) | growth inhibition (GI) (Aspergillus niger) | growth inhibition (GI) (Candida albicans)

COc1ccccc1/C=C1/N=C(C)N(c2ccc(/C(C)=N/NC(N)=S)cc2)C1=O
active: growth inhibition (GI) (Aspergillus clavatus) | growth inhibition (GI) (Aspergillus niger) | growth inhibition (GI) (Candida albicans)
inactive: growth inhibition (GI) (Streptococcus pyogenes [1]) | growth inhibition (GI) (Staphylococcus aureus [2]) | growth inhibition (GI) (Pseudomonas aeruginosa [3]) | growth inhibition (GI) (Escherichia coli [4])

CC(=O)c1ccc(N2C(=O)/C(=C\c3ccc(Cl)cc3)N=C2C)cc1
inactive: growth inhibition (GI) (Streptococcus pyogenes [1]) | growth inhibition (GI) (Staphylococcus aureus [2]) | growth inhibition (GI) (Pseudomonas aeruginosa [3]) | growth inhibition (GI) (Escherichia coli [4]) | growth inhibition (GI) (Aspergillus clavatus) | growth inhibition (GI) (Aspergillus niger) | growth inhibition (GI) (Candida albicans)

CC1=N/C(=C/c2ccccc2)C(=O)N1c1ccc(/C(C)=N/NC(N)=S)cc1
active: growth inhibition (GI) (Aspergillus clavatus) | growth inhibition (GI) (Aspergillus niger) | growth inhibition (GI) (Candida albicans)
inactive: growth inhibition (GI) (Streptococcus pyogenes [1]) | growth inhibition (GI) (Staphylococcus aureus [2]) | growth inhibition (GI) (Pseudomonas aeruginosa [3]) | growth inhibition (GI) (Escherichia coli [4])
